From PubChem BioAssay AID743095 (The Scripps Research Institute Molecular Screening Center, 2013)
Activity calls are given as the source filed them. How the calls were made is not given here.

Target: Galanin receptor type 3 (Homo sapiens) (UniProt O60755)
Experiment: human galanin receptor 3 blockers, IC50 – cell-based, fluorescence, dose response, late-stage follow-up (AID 743095)
Details: GalR3 cell line, fluorescence antagonist assay

For `COc1cc2c(cc1OC)[C@@H]1C(=O)c3ccc4c(c3O[C@@H]1CO2)C[C@H](C(C)C)O4`, which IC50 is on record?
The IC50 was 12.3 nM.

Which IC50 does the source give for `Cc1[nH]c(=O)c(C#N)cc1-c1ccccc1` here?
The IC50 was “inactive”.

For `COc1ccc(NS(=O)(=O)c2ccc(NC(=O)c3ccc(CN4CCOCC4)cc3)cc2)cc1`, which IC50 is on record?
The IC50 was 3000 nM.

How did the IC50 turn out when `CC(C)(C)NC(=O)COC(=O)c1snc(C(=O)NC2CCCCC2)c1N` was run?
The IC50 was 3190 nM.

With `Cc1ccccc1-c1cc(C(=O)Nc2sc(C(=O)OC(C)C)c(C)c2C#N)c2ccccc2n1` as the compound, how does the IC50 read?
The IC50 was 1130 nM.

`Cc1nc2ccccc2n1Cc1ccc(Cl)cc1` was tested. Which IC50 did it give?
The IC50 was 1260 nM.

Which IC50 does the source give for `COc1ccc(CN2CCC(C(=O)Nc3ccc(Oc4ccccc4)nc3)CC2)cc1F` here?
The IC50 was 6970 nM.

With `NC(=O)c1c(-c2ccc(Cl)cc2Cl)csc1NC(=O)Cc1ccccc1` as the compound, how does the IC50 read?
The IC50 was 2370 nM.

Which IC50 does the source give for `CCN(CC)S(=O)(=O)c1cc(NC(=O)CNc2cccc(S(=O)(=O)N3CCOCC3)c2)ccc1C` here?
Its IC50 is 3560 nM.

How did the IC50 turn out when `Nc1cc(-c2ccc(Br)cc2)nn1Cc1ccccc1` was run?
Its IC50 is 3620 nM.

`CC(=O)c1c(C)[nH]c(C(=O)COc2cc(C)ccc2C(C)C)c1C` was tested. Which IC50 did it give?
Its IC50 is 3580 nM.

`Fc1ccc(NC(=S)N2CCCN(c3ccc(C(F)(F)F)cn3)CC2)c(F)c1` was tested. Which IC50 did it give?
Its IC50 is 402 nM.

How did the IC50 turn out when `CC(=O)c1cn(CC(=O)NCCc2c[nH]c3ccccc23)c2ccccc12` was run?
The IC50 was 4140 nM.

Which IC50 does the source give for `CC(C)(C)CN1CCN(Cc2nc(-c3ccc(F)cc3)cs2)CC1CCO` (configuration not stated) here?
Its IC50 is 3240 nM.

`CC(C)(C)c1ccc(C(=O)Nc2ccc(Oc3cccnc3)nc2)cc1` was tested. Which IC50 did it give?
Its IC50 is 1140 nM.

With `Cc1cc(CSc2ccccc2)ccc1NC(=O)c1ccc(CN2CCOCC2)cc1` as the compound, how does the IC50 read?
The IC50 was 529 nM.

Which IC50 does the source give for `CSc1ccc(C(=O)C2CCCN(C(=O)CCc3c(C)nn(C)c3C)C2)cc1` (configuration not stated) here?
The IC50 was 4150 nM.

Which IC50 does the source give for `Cc1oc(-c2ccc(Cl)cc2)nc1CSCC(=O)NC1CCN(Cc2ccccc2)CC1` here?
The IC50 was 1320 nM.

With `COc1ccc(-n2c(C)cc(C(=O)COC(=O)Cn3cnc4ccccc43)c2C)cc1` as the compound, how does the IC50 read?
Its IC50 is > 29900 nM (inactive).

With `COc1cccc2[nH]c3c(N4CCC(C)CC4)ncnc3c12` as the compound, how does the IC50 read?
The IC50 was 2760 nM.

Which IC50 does the source give for `O=S(=O)(NCc1ccncc1)c1ccc(Br)s1` here?
Its IC50 is 1800 nM.

For `CCOC(=O)c1[nH]c2ccc(OC)cc2c1NS(=O)(=O)c1ccc(Cl)s1`, which IC50 is on record?
Its IC50 is 3140 nM.

With `Cc1nn(C)c(Cl)c1NC(=O)OCc1ccc(Cl)cc1Cl` as the compound, how does the IC50 read?
The IC50 was 4160 nM.

For `O=C(Cc1ccc(Cl)cc1Cl)Nc1ccncc1Cl`, which IC50 is on record?
Its IC50 is 3890 nM.

Which IC50 does the source give for `N#Cc1cc(-c2ccccc2)oc1NC(=O)c1ccco1` here?
The IC50 was “inactive”.

Which IC50 does the source give for `Nc1nonc1-n1nnc(C(=O)N/N=C/c2cc(Br)ccc2O)c1CSC1=NCCS1` here?
The IC50 was 6280 nM.

For `CCCCCn1c(=O)[nH]c2cc(C(=O)N3CCN(Cc4ccc5c(c4)OCO5)CC3)ccc2c1=O`, which IC50 is on record?
The IC50 was 143 nM.

For `COc1ccc(CN(C)c2ccc(S(=O)(=O)N3CCN(C)CC3)cc2[N+](=O)[O-])cc1OC`, which IC50 is on record?
The IC50 was 448 nM.

With `CCCOc1ccc(CSc2nc3ccccc3[nH]2)cc1` as the compound, how does the IC50 read?
The IC50 was 1200 nM.

How did the IC50 turn out when `O=C(COc1ccc(C(=O)c2ccccc2)cc1)Nc1cccnc1` was run?
Its IC50 is 1240 nM.

How did the IC50 turn out when `Cc1cc(C)nc(SCC(=O)Nc2ccnc3ccccc23)n1` was run?
Its IC50 is 1170 nM.

With `COc1ccc(OC)c(CCNC(=O)Cn2nc(C)c3c(C)n(-c4ccc(C)cc4)nc3c2=O)c1` as the compound, how does the IC50 read?
The IC50 was 3800 nM.

For `COc1ccc(CCNc2ncnc3sccc23)cc1OC`, which IC50 is on record?
The IC50 was 438 nM.

For `CCOC(=O)Cc1csc(NC(=O)c2cc(=O)c3ccccc3o2)n1`, which IC50 is on record?
Its IC50 is 5810 nM.

For `Cc1cccc(Cl)c1NC(=O)N1CCCN(c2nc3ccc(Cl)cc3s2)CC1`, which IC50 is on record?
Its IC50 is 1950 nM.

`O=C(CSc1nnnn1C1CC2CCC1C2)Nc1ccnc2ccccc12` (configuration not stated) was tested. Which IC50 did it give?
The IC50 was 140 nM.

Which IC50 does the source give for `NC(=O)c1nnn(Cc2cc(Cl)c(C(=O)c3ccc(Cl)cc3)c(Cl)c2)c1N` here?
Its IC50 is 3440 nM.

Which IC50 does the source give for `Cc1nn(C)c(C)c1CN(C)S(=O)(=O)c1ccc2ccccc2c1` here?
The IC50 was 1230 nM.

For `CC(C)(C)c1ccc(-n2ncc3c2CCCC3NC(=O)C2(C(N)=O)CC2)cc1` (configuration not stated), which IC50 is on record?
The IC50 was 2000 nM.

How did the IC50 turn out when `CCCOC(=O)c1ccc(OCC(O)Cn2c(C)nc3ccccc32)cc1` (configuration not stated) was run?
Its IC50 is 3270 nM.

With `CC1(C)CC2CC(C)(CN2S(=O)(=O)c2ccc(C(=O)Nc3cccc(S(=O)(=O)N4CCOCC4)c3)cc2)C1` (configuration not stated) as the compound, how does the IC50 read?
Its IC50 is 2110 nM.

Which IC50 does the source give for `Cc1ccccc1Cn1c(C)nc2ccccc21` here?
Its IC50 is 3410 nM.

For `COc1cc(CSc2nnnn2-c2ccc(C)cc2)cc(OC)c1OC`, which IC50 is on record?
Its IC50 is 3440 nM.

Which IC50 does the source give for `S=C(NCCc1ccccc1)Nc1cccc2cnccc12` here?
Its IC50 is 2620 nM.

For `CNc1ccccc1C(C)(C)c1cc(-c2ccc(F)cc2)no1`, which IC50 is on record?
The IC50 was 3830 nM.

`COc1ccc(C(=O)CSc2nnc(Cn3cnc4ccccc43)o2)cc1` was tested. Which IC50 did it give?
The IC50 was 3180 nM.

Which IC50 does the source give for `CC(=O)c1ccc(N2CCN(C(=S)Nc3ccc(Oc4ccccc4)cc3)CC2)cc1` here?
Its IC50 is 1230 nM.

`Cc1ccc(Oc2ccc(OCC(=O)Nc3ccncc3)cc2)cc1` was tested. Which IC50 did it give?
The IC50 was 428 nM.

`O=C(CSc1nnc(Cn2nnc3ccccc32)o1)N(Cc1ccc(F)cc1)c1ccccc1` was tested. Which IC50 did it give?
The IC50 was 1240 nM.

How did the IC50 turn out when `CC1CC(=O)NN=C1c1ccc(N)c([N+](=O)[O-])c1` (configuration not stated) was run?
The IC50 was 596 nM.

With `O=C(Nc1nc(-c2ccc(Cl)cc2Cl)cs1)c1ccc(OCC2CCCO2)cc1` (configuration not stated) as the compound, how does the IC50 read?
The IC50 was 1080 nM.

Which IC50 does the source give for `CCOc1cc(S(=O)(=O)NCc2ccncc2)ccc1Cl` here?
Its IC50 is 269 nM.

For `Cc1cc(C(=O)CSc2nc(N)cc(=O)[nH]2)c(C)n1-c1ccc(OC(F)F)cc1`, which IC50 is on record?
The IC50 was 1350 nM.

With `Cn1nc(C(C)(C)C)cc1C(=O)NCc1ccc(N2CCCC2=O)cc1` as the compound, how does the IC50 read?
The IC50 was 5270 nM.

With `CCCCc1ccc(NC(=O)c2ccc(N(C)S(C)(=O)=O)cc2)cc1` as the compound, how does the IC50 read?
The IC50 was 696 nM.

For `Cc1nn(C)c(Nc2ccc(Br)cc2)c1Br`, which IC50 is on record?
Its IC50 is 4140 nM.

`CCOc1nc(C#N)nc(N2CCCCC2)n1` was tested. Which IC50 did it give?
The IC50 was 2820 nM.
